Values after ≈ are worked out from the molar mass of the structure shown. Read-outs that look alike come from different tables or passages of the source.
Columns and labels:
[1] = system: Methicillin-resistant Staphylococcus aureus, clinical isolate; assay: Effect of pH on broth macrodilution MICs; format: cell-based
[2] = system: Bacillus subtilis Presque Isle 620; assay: Disk diffusion susceptibility testing
[3] = system: Micrococcus luteus Presque Isle 456; assay: Disk diffusion susceptibility testing
[4] = system: Corynebacterium diphtheriae; assay: Broth macrodilution MIC and MBC, clinical isolates; conditions: 3 strains
[5] = system: Pseudomonas aeruginosa Presque Isle 99; assay: Disk diffusion susceptibility testing
[6] = system: Enterococcus faecalis ATCC 29212; assay: Frequency of occurrence of spontaneous resistant mutants; format: cell-based; conditions: 24 h
Method: (§1) Overnight cultures of S. aureus 29213, E. faecalis 29212, S. pneumoniae 6303 and Bacillus subtilis 620 were diluted to an OD625nm=0.08 0.1 ml of each preparation was spread onto agar plates containing four or eight times the broth macrodilution MIC of the androstane derivative. The starting inoculum for each organism was also diluted and plated onto drug-free plates for determination of CFU/ml. After a 24 h incubation at the appropriate temperature, the number of bacterial colonies on drug-supplemented agar was counted. The frequency of occurrence of spontaneous mutants was calculated by dividing the number of colonies on drug containing plates by the number of colonies in the inoculum. When no colonies were visualized on drug-containing plates, the calculation was (<) 1 colony divided by the number of colonies in the inoculum.

[7] = system: Staphylococcus aureus ATCC 29213; assay: as above; format: cell-based; conditions: 24 h
Method: as §1

[8] = system: Bacillus subtilis Presque Isle 620; assay: as above; format: cell-based; conditions: 24 h
Method: as §1

[9] = system: Streptococcus pneumoniae ATCC 6303; assay: as above; format: cell-based; conditions: 24 h
Method: as §1

Gordona bronchialis = assay: Broth macrodilution MIC and MBC, clinical isolates; conditions: clinical isolate, 1 strain
Nocardia asteroides = assay: Broth macrodilution MIC and MBC, clinical isolates; conditions: clinical isolate, 1 strain
E. faecalis ATCC 29212 = assay: Effect of pH on broth macrodilution MICs; format: cell-based, Enterococcus faecalis
[10] = system: Methicillin-resistant Staphylococcus aureus; assay: Broth macrodilution MIC and MBC, clinical isolates
[11] = pH 6, range of 3 determinations
[12] = pH 7, range of 3 determinations
[13] = pH 8, range of 3 determinations
[14] = agar with 4X broth macrodilution MIC
[15] = agar with 8X broth macrodilution MIC

CC(=O)O[C@H]1CC[C@@]2(C)[C@@H](CC[C@@H]3[C@@H]2CC[C@]2(C)[C@@H](NC(=O)[C@@H]4CCCN4)CC[C@@H]32)C1
MIC Range [1, 11]: 16 µg/mL (≈ 37.2 µM)
MIC Range [1, 12]: 8 µg/mL (≈ 18.6 µM)
MIC Range [1, 13]: 4 µg/mL (≈ 9.29 µM)
MIC [2]: 3.12-6.25 μg/disk
MIC [3]: 1.56-3.12 μg/disk
MBC Range [4]: 8 µg/mL (≈ 18.6 µM)
MIC Range [4]: 4 to 8 µg/mL
MIC [5]: >100 μg/disk
Frequency at 4X MIC [6, 14]: 8.9 × 10^−7
Frequency at 8X MIC [6, 15]: <1 × 10^−8
Frequency at 4X MIC [7, 14]: 1.2 × 10^−6
Frequency at 8X MIC [7, 15]: <6 × 10^−9
Frequency at 4X MIC [8, 14]: <2.2 × 10^−7
Frequency at 8X MIC [8, 15]: <2.2 × 10^−7
Frequency at 4X MIC [9, 14]: <3.3 × 10^−6
Frequency at 8X MIC [9, 15]: <3.3 × 10^−6
MBC Range (Gordona bronchialis): 8 µg/mL (≈ 18.6 µM)
MIC Range (Gordona bronchialis): 8 µg/mL (≈ 18.6 µM)
MBC Range (Nocardia asteroides): 32 µg/mL (≈ 74.3 µM)
MIC Range (Nocardia asteroides): 8 µg/mL (≈ 18.6 µM)
MIC Range (E. faecalis ATCC 29212; [11]): 32 µg/mL (≈ 74.3 µM)
MIC Range (E. faecalis ATCC 29212; [12]): 8 to 16 µg/mL
MIC Range (E. faecalis ATCC 29212; [13]): 4 to 8 µg/mL
MIC50 ([10]; Staphylococcus aureus): 8 µg/mL (≈ 18.6 µM)
MIC90 ([10]; Staphylococcus aureus): 8 µg/mL (≈ 18.6 µM)
MBC ([10]; Staphylococcus aureus, read-out: MBC 50%): 16 µg/mL (≈ 37.2 µM)
MBC ([10]; Staphylococcus aureus, read-out: MBC 90%): > 64 µg/mL
MIC Range ([10]; clinical isolates, 22 strains): 4 to 8 µg/mL
share of strains with MBC/MIC ratios ≦2 ([10]; methicillin-resistant S. aureus): 73%
